Measurements from PubChem BioAssay AID328 (DTP/NCI, 2004).
“And” between values parts separate entries of the source, which are not always exact repeats. Identical values can stand only once. Inconclusive results and toxic doses are left out.

Test system: BDF1 mice, P388 leukemia ip, median survival T/C
Assay: NCI In Vivo Anticancer Drug Screen. Data for tumor model P388 Leukemia (intraperitoneal) in B6D2F1 (BDF1) mice
Details: endpoint: median survival time, higher = longer survival
In short: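 Steps: implant the tumour, treat one group with compound and another with vehicle, record survival, then divide treated by control.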

[1] = dose: 100.0 mg/kg/injection, schedule: Q01DX009 (ip), vehicle: saline with Tween-80
[2] = dose: 100.0 mg/kg/injection, schedule: Q04DX003 (ip), vehicle: saline with Tween-80
[3] = dose: 200.0 mg/kg/injection, schedule: Q04DX003 (ip), vehicle: saline with Tween-80
[4] = dose: 100.0 mg/kg/injection, schedule: Q01DX001 (ip), vehicle: saline with Tween-80
[5] = dose: 200.0 mg/kg/injection, schedule: Q01DX001 (ip), vehicle: saline with Tween-80
[6] = dose: 6.25 mg/kg/injection, schedule: Q01DX009 (ip), vehicle: saline with Tween-80
[7] = dose: 100.0 mg/kg/injection, schedule: Q01DX009 (ip), vehicle: Klucel (hydroxypropylcellulose) (HPC)
[8] = dose: 200.0 mg/kg/injection, schedule: Q01DX009 (ip), vehicle: Klucel (hydroxypropylcellulose) (HPC)
[9] = dose: 25.0 mg/kg/injection, schedule: Q01DX009 (ip), vehicle: saline with Tween-80
[10] = dose: 25.0 mg/kg/injection, schedule: Q01DX009 (ip), vehicle: Klucel (hydroxypropylcellulose) (HPC)

With O=C(CSc1ncnc2nc[nH]c12)c1ccccc1 the T/C [1] was 104 % of control, the T/C [2] was 86 % of control and the T/C (dose: 200.0 mg/kg/injection, schedule: Q01DX009 (ip), vehicle: saline with Tween-80) was 104 % of control. For the same compound, the T/C [3] was 100 % of control, the T/C (dose: 400.0 mg/kg/injection, schedule: Q01DX009 (ip), vehicle: saline with Tween-80) was 100 % of control and the T/C (dose: 400.0 mg/kg/injection, schedule: Q04DX003 (ip), vehicle: saline with Tween-80) was 91 % of control.
In the case of SC1CC[N-]CC1.SC1CC[N-]CC1.[Cl][Pt+2][Cl], the T/C (dose: 50.0 mg/kg/injection, schedule: Q01DX009 (ip), vehicle: water) is reported as 107 % of control, the T/C (dose: 100.0 mg/kg/injection, schedule: Q01DX009 (ip), vehicle: water) is reported as 91 % of control and the T/C (dose: 100.0 mg/kg/injection, schedule: Q04DX003 (ip), vehicle: water) is reported as 98 % of control. For the same compound, the T/C (dose: 200.0 mg/kg/injection, schedule: Q04DX003 (ip), vehicle: water) was 98 % of control and the T/C (dose: 400.0 mg/kg/injection, schedule: Q04DX003 (ip), vehicle: water) was 96 % of control.
With CCOC(=O)C1=C(N)CC(c2ccc(C#N)cc2)NC1c1cccc(OC)c1O (stereo not drawn) the T/C [4] was 105 % of control and the T/C [5] was 111 % of control.
COc1c(Br)cc(/C=C(/C)[N+](=O)[O-])cc1Br was tested, and the T/C [2] was 114 % of control and the T/C [3] was 160 % of control.
Cn1c(CC(O)(C(F)(F)F)C(F)(F)F)cc2ccccc21 was tested, and the T/C (dose: 100.0 mg/kg/injection, schedule: Q01DX001 (ip), vehicle: other) was 87 % of control and the T/C (dose: 400.0 mg/kg/injection, schedule: Q01DX001 (ip), vehicle: other) was 95 % of control.
With O=C(CBr)N1CCC2(CC1)SSC1(CCN(C(=O)CBr)CC1)S2 the T/C (dose: 3.12 mg/kg/injection, schedule: Q01DX009 (ip), vehicle: saline with Tween-80) was 112 % of control, the T/C [6] was 95 % of control and 111 % of control and the T/C (dose: 10.0 mg/kg/injection, schedule: Q04DX003 (ip), vehicle: saline with Tween-80) was 122 % of control. The T/C (dose: 20.0 mg/kg/injection, schedule: Q04DX003 (ip), vehicle: saline with Tween-80) was 120 % of control, the T/C (dose: 25.0 mg/kg/injection, schedule: Q04DX003 (ip), vehicle: saline with Tween-80) was 123 % of control and the T/C (dose: 40.0 mg/kg/injection, schedule: Q04DX003 (ip), vehicle: saline with Tween-80) was 114 % of control. For the same compound, the T/C (dose: 50.0 mg/kg/injection, schedule: Q04DX003 (ip), vehicle: saline with Tween-80) was 113 % of control, the T/C [1] was 112 % of control and the T/C [2] was 118 % of control. For the same compound, the T/C [3] was 102 % of control.
For O.O.O=C(CC(=O)C(F)(F)F)C(F)(F)F.O=C(CC(=O)C(F)(F)F)C(F)(F)F.[Ni], the T/C (dose: 200.0 mg/kg/injection, schedule: Q01DX001 (ip), vehicle: Klucel (hydroxypropylcellulose) (HPC)) was 104 % of control.
For Cc1c(C)c(Cl)c(C)c(Cl)c1O, the T/C [7] was 109 % of control, the T/C (dose: 100.0 mg/kg/injection, schedule: Q04DX003 (ip), vehicle: Klucel (hydroxypropylcellulose) (HPC)) was 100 % of control and the T/C [8] was 100 % of control. The T/C (dose: 200.0 mg/kg/injection, schedule: Q04DX003 (ip), vehicle: Klucel (hydroxypropylcellulose) (HPC)) was 104 % of control, the T/C (dose: 400.0 mg/kg/injection, schedule: Q01DX009 (ip), vehicle: Klucel (hydroxypropylcellulose) (HPC)) was 109 % of control and the T/C (dose: 400.0 mg/kg/injection, schedule: Q04DX003 (ip), vehicle: Klucel (hydroxypropylcellulose) (HPC)) was 100 % of control.
With COc1ccc2c(c1)CCN(C1=C(C)C(=O)CC1)C2CC(=O)O (stereo not drawn) the T/C (dose: 100.0 mg/kg/injection, schedule: Q01DX001 (ip), vehicle: saline sonified) was 100 % of control, the T/C (dose: 200.0 mg/kg/injection, schedule: Q01DX001 (ip), vehicle: saline sonified) was 100 % of control and the T/C (dose: 400.0 mg/kg/injection, schedule: Q01DX001 (ip), vehicle: saline sonified) was 100 % of control.
With C=C1C(=O)OC2C1CCC(=C)C1CC(O)C(=C)C12 (stereo not drawn) the T/C (dose: 7.4 mg/kg/injection, schedule: Q01DX009 (ip), vehicle: saline with Tween-80) was 91 % of control, the T/C (dose: 11.0 mg/kg/injection, schedule: Q01DX009 (ip), vehicle: saline with Tween-80) was 104 % of control and the T/C (dose: 16.0 mg/kg/injection, schedule: Q01DX009 (ip), vehicle: saline with Tween-80) was 91 % of control. For the same compound, the T/C [9] was 100 % of control.
Cc1cc(O)c(O)c(C(C)(C)CC(C)(C)C)c1 was tested, and the T/C (dose: 100.0 mg/kg/injection, schedule: Q04DX003 (ip), vehicle: saline + alcohol) was 95 % of control, the T/C (dose: 200.0 mg/kg/injection, schedule: Q04DX003 (ip), vehicle: saline + alcohol) was 104 % of control and the T/C (dose: 400.0 mg/kg/injection, schedule: Q04DX003 (ip), vehicle: saline + alcohol) was 100 % of control.
With COc1cc2ccc3c4cc5c(cc4c[n+](C)c3c2cc1OC)OCO5 the T/C (dose: 20.0 mg/kg/injection, schedule: Q01DX009 (ip), vehicle: saline) was 122 % of control, the T/C (dose: 40.0 mg/kg/injection, schedule: Q01DX009 (ip), vehicle: saline) was 154 % of control and 159 % of control and the T/C (dose: 80.0 mg/kg/injection, schedule: Q01DX009 (ip), vehicle: saline) was 113 % of control. For the same compound, the T/C (dose: 120.0 mg/kg/injection, schedule: Q01DX009 (ip), vehicle: saline) was 86 % of control.
With CC(=O)OCC(=O)[C@@]1(O)CC[C@H]2[C@@H]3CCC4=CC(=O)[C@H](C)C[C@]4(C)[C@@]3(F)[C@@H](O)C[C@@]21C the T/C (dose: 6.25 mg/kg/injection, schedule: Q01DX009 (ip), vehicle: Klucel (hydroxypropylcellulose) (HPC)) was 109 % of control, the T/C (dose: 12.5 mg/kg/injection, schedule: Q01DX009 (ip), vehicle: Klucel (hydroxypropylcellulose) (HPC)) was 109 % of control and the T/C [10] was 90 % of control. For the same compound, the T/C (dose: 254.0 mg/kg/injection, schedule: Q01DX001 (ip), vehicle: Klucel (hydroxypropylcellulose) (HPC)) was 100 % of control and the T/C (dose: 385.0 mg/kg/injection, schedule: Q01DX001 (ip), vehicle: Klucel (hydroxypropylcellulose) (HPC)) was 91 % of control.
In the case of Cc1c2ccccc2c(C)c2c1ccc1ccccc12, the T/C (dose: 1.7 mg/kg/injection, schedule: Q01DX009 (ip), vehicle: saline with Tween-80) is reported as 172 % of control, the T/C (dose: 2.6 mg/kg/injection, schedule: Q01DX009 (ip), vehicle: saline with Tween-80) is reported as 163 % of control and the T/C (dose: 4.0 mg/kg/injection, schedule: Q01DX009 (ip), vehicle: saline with Tween-80) is reported as 177 % of control. For the same compound, the T/C (dose: 6.0 mg/kg/injection, schedule: Q01DX009 (ip), vehicle: saline with Tween-80) was 168 % of control and the T/C (dose: 13.0 mg/kg/injection, schedule: Q01DX009 (ip), vehicle: saline with Tween-80) was 172 % of control.
In the case of NCCCCNC(=O)c1csc(-c2csc(CCNC(=O)c3ccccc3)n2)n1, the T/C (dose: 8.0 mg/kg/injection, schedule: Q01DX009 (ip), vehicle: saline) is reported as 100 % of control, the T/C (dose: 16.0 mg/kg/injection, schedule: Q01DX009 (ip), vehicle: saline) is reported as 100 % of control and the T/C (dose: 32.0 mg/kg/injection, schedule: Q01DX009 (ip), vehicle: saline) is reported as 100 % of control. For the same compound, the T/C (dose: 64.0 mg/kg/injection, schedule: Q01DX009 (ip), vehicle: saline) was 110 % of control.
For COc1ccc(C2=NC(c3ccccc3)NC(c3ccccc3)/C2=C/c2ccccc2)cc1 (stereo not drawn), the T/C [6] was 106 % of control, the T/C (dose: 12.5 mg/kg/injection, schedule: Q01DX009 (ip), vehicle: saline with Tween-80) was 99 % of control and the T/C [9] was 99 % of control. The T/C (dose: 50.0 mg/kg/injection, schedule: Q01DX009 (ip), vehicle: saline with Tween-80) was 91 % of control and 94 % of control and the T/C [1] was 95 % of control.
With NS(=O)(=O)CS(=O)(=O)Oc1ccccc1 the T/C [4] was 100 % of control and the T/C [5] was 99 % of control.
In the case of Nc1nc(=S)[nH]c(C(=O)O)c1Cc1ccccc1, the T/C [10] is reported as 109 % of control, the T/C (dose: 50.0 mg/kg/injection, schedule: Q01DX009 (ip), vehicle: Klucel (hydroxypropylcellulose) (HPC)) is reported as 86 % of control and 115 % of control and the T/C [7] is reported as 115 % of control. The T/C [8] was 120 % of control.
